Measured values: article PMC7257206, “A novel sphingosylphosphorylcholine and sphingosine-1-phosphate receptor 1 antagonist, KRO-105714, for alleviating atopic dermatitis” (Journal of Inflammation (London, England), 2020)

Legend:
2C19 = biological target: T1, 2C19 (Homo sapiens, UniProt P33261); test: biochemical; set-up: CYP450 isoform inhibition assay, IC50; conditions: read-out: CYP450 IC50
T1 construct: gene CYP2C19

1A2 = biological target: T2, 1A2 (Homo sapiens, UniProt P05177); test: biochemical; set-up: CYP450 isoform inhibition assay, IC50; conditions: read-out: CYP450 IC50
T2 construct: gene CYP1A2
T2 sequence (P05177 1-516): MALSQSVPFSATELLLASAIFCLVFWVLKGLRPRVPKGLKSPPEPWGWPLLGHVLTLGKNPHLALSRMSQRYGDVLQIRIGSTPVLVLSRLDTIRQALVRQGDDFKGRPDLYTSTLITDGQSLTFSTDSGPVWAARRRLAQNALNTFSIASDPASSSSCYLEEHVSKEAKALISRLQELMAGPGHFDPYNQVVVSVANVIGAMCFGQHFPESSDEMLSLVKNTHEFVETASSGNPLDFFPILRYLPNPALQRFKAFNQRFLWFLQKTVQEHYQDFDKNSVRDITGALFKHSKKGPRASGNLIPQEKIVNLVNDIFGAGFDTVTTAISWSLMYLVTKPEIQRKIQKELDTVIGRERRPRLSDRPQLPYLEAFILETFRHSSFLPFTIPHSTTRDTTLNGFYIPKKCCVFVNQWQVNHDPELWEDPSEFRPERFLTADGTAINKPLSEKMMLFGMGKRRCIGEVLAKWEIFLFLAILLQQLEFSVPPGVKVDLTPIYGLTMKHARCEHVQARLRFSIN

[1] = biological target: T3, sphingosine-1-phosphate receptor 1 (S1P1) (Homo sapiens, UniProt P21453); test: […]-GTPγS binding assay (SPC-stimulated) in membranes of HEK-293 cells stably expressing hS1P1; assay type: biochemical
T3 construct: gene S1PR1; hS1P1 stably expressed in HEK-293 cells (membrane pellets)

hERG potassium channel [2] = biological target: T4, hERG potassium channel (Homo sapiens, UniProt Q12809); test: in vitro; set-up: hERG binding assay, [3H]astemizole displacement
T4 construct: gene KCNH2
Description: KRO-105714 also had no cardiotoxicity in the hERG potassium channel binding assay (IC50 > 10 μM) (Additional file 1: Table S1B).

2D6 = biological target: T5, 2D6 (Homo sapiens, UniProt P10635); test: biochemical; set-up: CYP450 isoform inhibition assay, IC50; conditions: read-out: CYP450 IC50
T5 construct: gene CYP2D6

hERG potassium channel [3] = biological target: T4, hERG potassium channel; test: biochemical
3A4 = biological target: T6, 3A4 (Homo sapiens, UniProt P08684); test: biochemical; set-up: CYP450 isoform inhibition assay, IC50; conditions: read-out: CYP450 IC50
T6 construct: gene CYP3A4

2C9 = biological target: T7, 2C9 (Homo sapiens, UniProt P11712); test: biochemical
T7 construct: gene CYP2C9
T7 sequence (P11712 whole entry): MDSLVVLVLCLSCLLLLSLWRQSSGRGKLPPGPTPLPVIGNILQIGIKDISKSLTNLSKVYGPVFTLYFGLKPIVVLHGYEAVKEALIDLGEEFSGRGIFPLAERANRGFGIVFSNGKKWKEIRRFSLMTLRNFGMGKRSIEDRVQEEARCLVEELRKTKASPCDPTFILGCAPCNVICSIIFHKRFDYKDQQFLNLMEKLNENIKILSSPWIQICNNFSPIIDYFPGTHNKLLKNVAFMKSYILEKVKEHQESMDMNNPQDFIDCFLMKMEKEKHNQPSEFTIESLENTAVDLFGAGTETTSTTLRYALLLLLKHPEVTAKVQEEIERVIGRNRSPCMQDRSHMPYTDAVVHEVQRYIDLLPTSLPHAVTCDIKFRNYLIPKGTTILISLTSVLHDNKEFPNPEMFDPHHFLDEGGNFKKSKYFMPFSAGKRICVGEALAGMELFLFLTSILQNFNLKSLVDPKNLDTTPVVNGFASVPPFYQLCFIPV

T4 sequence (Q12809 whole entry): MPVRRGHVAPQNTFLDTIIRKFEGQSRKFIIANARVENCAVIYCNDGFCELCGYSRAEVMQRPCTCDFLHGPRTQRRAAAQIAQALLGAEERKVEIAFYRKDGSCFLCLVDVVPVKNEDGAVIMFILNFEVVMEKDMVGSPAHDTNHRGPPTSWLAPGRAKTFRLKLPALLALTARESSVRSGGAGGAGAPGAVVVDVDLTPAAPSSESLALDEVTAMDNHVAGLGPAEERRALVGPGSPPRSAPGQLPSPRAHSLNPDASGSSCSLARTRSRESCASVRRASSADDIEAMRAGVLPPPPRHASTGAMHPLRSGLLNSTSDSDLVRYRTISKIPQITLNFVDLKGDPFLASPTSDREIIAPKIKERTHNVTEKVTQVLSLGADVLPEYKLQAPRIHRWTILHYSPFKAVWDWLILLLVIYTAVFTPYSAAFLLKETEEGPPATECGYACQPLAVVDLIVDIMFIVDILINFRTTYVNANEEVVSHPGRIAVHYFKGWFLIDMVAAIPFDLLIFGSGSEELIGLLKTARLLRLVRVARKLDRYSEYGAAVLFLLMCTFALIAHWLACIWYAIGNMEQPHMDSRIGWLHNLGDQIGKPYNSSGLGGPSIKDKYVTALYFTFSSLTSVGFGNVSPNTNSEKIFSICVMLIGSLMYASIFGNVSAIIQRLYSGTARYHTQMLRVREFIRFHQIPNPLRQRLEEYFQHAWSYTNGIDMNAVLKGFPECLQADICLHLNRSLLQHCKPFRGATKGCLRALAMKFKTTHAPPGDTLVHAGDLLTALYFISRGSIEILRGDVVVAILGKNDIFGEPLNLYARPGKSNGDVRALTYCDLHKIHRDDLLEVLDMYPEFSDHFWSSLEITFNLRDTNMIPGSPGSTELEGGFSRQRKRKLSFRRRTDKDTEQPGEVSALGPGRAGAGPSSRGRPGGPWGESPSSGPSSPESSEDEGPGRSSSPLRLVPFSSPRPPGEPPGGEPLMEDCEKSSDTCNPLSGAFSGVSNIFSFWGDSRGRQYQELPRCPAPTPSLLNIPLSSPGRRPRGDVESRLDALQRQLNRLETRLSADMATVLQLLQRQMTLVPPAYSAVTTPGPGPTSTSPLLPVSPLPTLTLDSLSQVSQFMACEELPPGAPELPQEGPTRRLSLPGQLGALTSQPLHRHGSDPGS
T5 sequence (P10635 whole entry, canonical isoform): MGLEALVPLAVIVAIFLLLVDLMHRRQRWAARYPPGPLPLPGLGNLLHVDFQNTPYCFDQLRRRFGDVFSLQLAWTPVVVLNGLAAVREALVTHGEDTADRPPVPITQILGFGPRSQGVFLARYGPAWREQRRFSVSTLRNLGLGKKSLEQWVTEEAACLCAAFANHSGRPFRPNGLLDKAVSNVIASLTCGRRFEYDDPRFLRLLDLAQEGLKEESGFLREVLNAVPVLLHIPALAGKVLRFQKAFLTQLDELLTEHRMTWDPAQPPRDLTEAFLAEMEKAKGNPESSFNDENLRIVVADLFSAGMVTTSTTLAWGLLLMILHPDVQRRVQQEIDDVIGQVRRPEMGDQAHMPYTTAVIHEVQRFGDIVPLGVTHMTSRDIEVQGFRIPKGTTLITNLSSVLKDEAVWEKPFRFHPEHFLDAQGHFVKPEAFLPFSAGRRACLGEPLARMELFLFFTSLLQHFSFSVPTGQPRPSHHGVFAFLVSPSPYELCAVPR
T6 sequence (P08684 whole entry, canonical isoform): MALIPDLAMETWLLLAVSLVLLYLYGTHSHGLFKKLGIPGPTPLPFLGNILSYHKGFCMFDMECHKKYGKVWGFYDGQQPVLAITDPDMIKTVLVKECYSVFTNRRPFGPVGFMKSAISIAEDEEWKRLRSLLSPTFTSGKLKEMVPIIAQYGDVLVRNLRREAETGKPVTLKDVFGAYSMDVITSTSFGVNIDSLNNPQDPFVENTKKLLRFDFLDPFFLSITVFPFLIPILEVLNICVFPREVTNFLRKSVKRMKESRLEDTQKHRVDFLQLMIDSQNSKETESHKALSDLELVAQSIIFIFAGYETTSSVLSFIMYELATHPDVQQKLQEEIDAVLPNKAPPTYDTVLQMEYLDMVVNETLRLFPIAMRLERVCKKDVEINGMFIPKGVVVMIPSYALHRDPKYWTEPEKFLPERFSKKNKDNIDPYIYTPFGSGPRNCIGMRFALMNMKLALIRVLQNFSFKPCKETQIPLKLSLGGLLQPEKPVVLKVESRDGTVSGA
T1 sequence (P33261 whole entry, canonical isoform): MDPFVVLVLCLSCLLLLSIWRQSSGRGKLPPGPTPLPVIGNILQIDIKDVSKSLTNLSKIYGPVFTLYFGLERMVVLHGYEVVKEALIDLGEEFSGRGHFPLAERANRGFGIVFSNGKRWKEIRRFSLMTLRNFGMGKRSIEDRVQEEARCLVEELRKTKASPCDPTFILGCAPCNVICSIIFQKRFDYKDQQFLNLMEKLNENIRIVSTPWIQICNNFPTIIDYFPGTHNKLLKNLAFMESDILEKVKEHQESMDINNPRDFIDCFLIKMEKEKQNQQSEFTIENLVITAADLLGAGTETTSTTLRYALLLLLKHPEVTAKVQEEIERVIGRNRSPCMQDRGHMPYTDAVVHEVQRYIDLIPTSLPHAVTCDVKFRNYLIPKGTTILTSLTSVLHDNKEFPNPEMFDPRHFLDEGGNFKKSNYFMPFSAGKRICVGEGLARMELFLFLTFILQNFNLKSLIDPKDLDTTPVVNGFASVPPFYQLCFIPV
T3 sequence (P21453 whole entry): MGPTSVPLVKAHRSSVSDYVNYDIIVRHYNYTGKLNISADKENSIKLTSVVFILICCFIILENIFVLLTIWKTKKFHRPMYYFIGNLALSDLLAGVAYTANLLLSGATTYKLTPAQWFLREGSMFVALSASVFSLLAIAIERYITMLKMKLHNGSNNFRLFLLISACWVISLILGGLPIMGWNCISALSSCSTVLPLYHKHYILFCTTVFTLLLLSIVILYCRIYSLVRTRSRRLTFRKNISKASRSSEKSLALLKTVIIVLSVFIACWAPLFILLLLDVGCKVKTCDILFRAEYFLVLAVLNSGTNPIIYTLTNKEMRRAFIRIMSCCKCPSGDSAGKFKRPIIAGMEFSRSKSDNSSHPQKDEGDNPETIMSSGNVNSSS

IC50 (2C19): > 10 µM
IC50 (1A2): > 10 µM
IC50 [1]: 0.0792 µM
IC50 (2D6): > 10 µM
IC50 (3A4): > 10 µM
IC50 (2C9): > 10 µM
SMILES: COc1ccccc1N1CCN(c2nc(NC(=O)C(C)(C)C)c(C(=O)c3ccccc3)s2)CC1 [KRO-105714]
inhibition at 10 µM (hERG potassium channel [2]; read-out: %-Inhibition/[3H]Astemizole -5): 45%
inhibition at 1 µM (hERG potassium channel [2]; read-out: %-Inhibition/[3H]Astemizole -6): 3%
IC50 (hERG potassium channel [3]): > 10 µM
